Calls of active or inactive are those of the source. No cut-off for these calls is given here.
Tests used:
[1] = tested on: Escherichia coli; assay: Antimicrobial activity against Escherichia coli 25922 assessed as absence bacterial growth measured after 18 to 24 hrs incubation by NCCLS method; assay type: functional; settings: time 18-24 hrs
[2] = tested on: Escherichia coli; assay: Antimicrobial activity against Escherichia coli K88 assessed as absence bacterial growth measured after 18 to 24 hrs incubation by NCCLS method; assay type: functional; settings: time 18-24 hrs
[3] = tested on: Salmonella typhimurium; assay: Antimicrobial activity against Salmonella typhimurium 14028 assessed as absence bacterial growth measured after 18 to 24 hrs incubation by NCCLS method; assay type: functional, Salmonella enterica subsp. enterica serovar Typhimurium; settings: Salmonella enterica, time 18-24 hrs
[4] = Antimicrobial activity against Salmonella pullorum C7913 assessed as absence bacterial growth measured after 18 to 24 hrs incubation by NCCLS method; assay type: functional, Salmonella enterica subsp. enterica serovar Pullorum; settings: Salmonella enterica, time 18-24 hrs
[5] = tested on: Pseudomonas aeruginosa; assay: Antimicrobial activity against Pseudomonas aeruginosa 27853 assessed as absence bacterial growth measured after 18 to 24 hrs incubation by NCCLS method; assay type: functional; settings: time 18-24 hrs
[6] = tested on: Acinetobacter baumannii; assay: Antimicrobial activity against Acinetobacter baumannii 1.6769 assessed as absence bacterial growth measured after 18 to 24 hrs incubation by NCCLS method; assay type: functional; settings: time 18-24 hrs
[7] = tested on: Listeria monocytogenes; assay: Antimicrobial activity against Listeria monocytogenes 1.10753 assessed as absence bacterial growth measured after 18 to 24 hrs incubation by NCCLS method; assay type: functional; settings: time 18-24 hrs
[8] = tested on: Bacillus cereus; assay: Antimicrobial activity against Bacillus cereus 1.932 assessed as absence bacterial growth measured after 18 to 24 hrs incubation by NCCLS method; assay type: functional; settings: time 18-24 hrs
[9] = tested on: Staphylococcus aureus; assay: Antimicrobial activity against Staphylococcus aureus 29213 assessed as absence bacterial growth measured after 18 to 24 hrs incubation by NCCLS method; assay type: functional; settings: time 18-24 hrs
[10] = tested on: Staphylococcus aureus; assay: Antimicrobial activity against Staphylococcus aureus 29213 assessed as absence bacterial growth measured after 18 to 24 hrs incubation by NCCLS m; assay type: functional; settings: time 18-24 hrs
[11] = tested on: Escherichia coli; assay: Antimicrobial activity against Escherichia coli K88 assessed as bacterial killing measured after 16 hrs incubation; assay type: functional
[12] = tested on: Salmonella typhimurium; assay: Antimicrobial activity against Salmonella typhimurium 14028 assessed as bacterial killing measured after 16 hrs incubation; assay type: functional, Salmonella enterica subsp. enterica serovar Typhimurium; settings: Salmonella enterica
[13] = Antimicrobial activity against Salmonella pullorum C7913 assessed as bacterial killing measured after 16 hrs incubation; assay type: functional, Salmonella enterica subsp. enterica serovar Pullorum; settings: Salmonella enterica
[14] = tested on: Enterococcus faecalis; assay: Antimicrobial activity against Enterococcus faecalis 29212 assessed as bacterial killing measured after 16 hrs incubation; assay type: functional
[15] = tested on: Staphylococcus aureus; assay: Antimicrobial activity against Staphylococcus aureus 29213 assessed as bacterial killing measured after 16 hrs incubation; assay type: functional
[16] = tested on: Staphylococcus aureus; assay: Antimicrobial activity against Methicillin-resistant Staphylococcus aureus 43300 assessed as bacterial killing measured after 16 hrs incubation; assay type: functional
[17] = tested on: Staphylococcus epidermidis; assay: Antimicrobial activity against Staphylococcus epidermidis 12228 assessed as bacterial killing measured after 16 hrs incubation; assay type: functional
[18] = tested on: Staphylococcus aureus; assay: Antimicrobial activity against Staphylococcus aureus 25923 assessed as bacterial killing measured after 16 hrs incubation; assay type: functional
[19] = tested on: Salmonella typhimurium; assay: Antimicrobial activity against Salmonella typhimurium C7731 assessed as absence bacterial growth measured after 18 to 24 hrs incubation by NCCLS method; assay type: functional, Salmonella enterica subsp. enterica serovar Typhimurium; settings: Salmonella enterica, time 18-24 hrs
[20] = tested on: Escherichia coli; assay: Antimicrobial activity against Escherichia coli 25922 assessed as absence bacterial growth measured after 18 to 24 hrs incubation in presence of 25% serum by NCCLS method; assay type: functional; settings: time 18-24 hrs
[21] = tested on: Escherichia coli; assay: Antimicrobial activity against Escherichia coli 25922 assessed as absence bacterial growth measured after 18 to 24 hrs incubation in presence of 12.5% serum by NCCLS method; assay type: functional; settings: time 18-24 hrs
[22] = tested on: Escherichia coli; assay: Antimicrobial activity against Escherichia coli 25922 assessed as absence bacterial growth measured after 18 to 24 hrs incubation in presence of MgCl2 by NCCLS method; assay type: functional; settings: time 18-24 hrs
[23] = tested on: Escherichia coli; assay: Antimicrobial activity against Escherichia coli 25922 assessed as absence bacterial growth measured after 18 to 24 hrs incubation in presence of FeCl3 by NCCLS method; assay type: functional; settings: time 18-24 hrs
[24] = Cytotoxicity against mouse RAW264.7 cells assessed as cell survival rate at 32 to 64 uM measured after 8 hrs by MTT assay relative to control; assay type: toxicity, cell-based; settings: dose 32-64 µM, read-out: Activity
[25] = Cytotoxicity against human HEK-293T cells assessed as cell survival rate at 64 uM measured after 8 hrs by MTT assay relative to control; assay type: toxicity, cell-based; settings: read-out: Activity
[26] = Cytotoxicity against porcine IPEC-J2 cells assessed as cell survival rate at 64 uM measured after 8 hrs by MTT assay relative to control; assay type: toxicity, cell-based, Sus scrofa; settings: pig, read-out: Activity
[27] = Cytotoxicity against porcine IPEC-J2 cells assessed as cell survival rate measured after 8 hrs by MTT assay; assay type: toxicity, cell-based, Sus scrofa; settings: pig
[28] = tested on: Escherichia coli; assay: Antibacterial activity against Escherichia coli 25922 assessed as bactericidal rate by measuring reduction in bacterial count at 1 times MBC concentration measured at 15 secs by time-kill kinetic assay; assay type: functional; settings: time 15 sec; 15 s
[29] = tested on: Escherichia coli; assay: Antibacterial activity against Escherichia coli 25922 assessed as absence bacterial growth measured after 18 to 24 hrs incubation at pH 8 by NCCLS method; assay type: functional; settings: time 18-24 hrs
[30] = tested on: Escherichia coli; assay: Antibacterial activity against Escherichia coli 25922 assessed as absence bacterial growth measured after 18 to 24 hrs incubation at pH 10 by NCCLS method; assay type: functional; settings: time 18-24 hrs
[31] = tested on: Lipopolysaccharide (LPS); assay: Binding affinity to Escherichia coli O111:B4 LPS assessed as fluorescence intensity measured after 1 hr by spectrophotometry; assay type: subcellular; settings: dose 2-16 µM
[32] = tested on: Lipoteichoic acid; assay: Binding affinity to Staphylococcus aureus LTA assessed as fluorescence intensity measured after 1 hr by spectrophotometry; settings: dose 1-64 µM
[33] = tested on: Escherichia coli; assay: Outer membrane permeabilization/cell wall in Escherichia coli 25922 assessed as fluorescence intensity of NPN measured at 2 to 128 uM after 1 hr by spectrophotometry; assay type: functional, organism-based; settings: dose 2-128 µM
[34] = tested on: Staphylococcus aureus; assay: Outer membrane permeabilization/cell wall in Staphylococcus aureus 29213 assessed as fluorescence intensity of NPN measured at 2 to 128 uM after 1 hr by spectrophotometry; assay type: functional, organism-based; settings: dose 2-128 µM
[35] = tested on: Escherichia coli; assay: Inhibition of respiratory chain dehydrogenase activity in mid-log phase Escherichia coli 25922 measured after 4 hrs by Red-tetraazoline based spectrophotometry assay
[36] = tested on: Staphylococcus aureus; assay: Inhibition of respiratory chain dehydrogenase activity in mid-log phase Staphylococcus aureus 29213 measured after 4 hrs by Red-tetraazoline based spectrophotometry assay
[37] = tested on: Cell membrane; assay: Induction of cytoplasmic membrane disruption in Escherichia coli 25922 assessed as increase in fluorescence intensity at 2 to 64 uM by DiSC3-5 probe based assay; assay type: cell membranes; settings: dose 2-64 µM, time <= 30.0 min, TDE = time-dependent effect
[38] = tested on: Cell membrane; assay: Induction of cytoplasmic membrane disruption in Staphylococcus aureus 29213 assessed as increase in fluorescence intensity at 2 to 64 uM by DiSC3-5 probe based assay; assay type: cell membranes; settings: dose 2-64 µM, time <= 30.0 min, TDE = time-dependent effect
[39] = tested on: Escherichia coli; assay: Induction of morphological changes in Escherichia coli 25922 assessed as changes in cell surface by measuring signs of disruption by using scanning electron microscopy; assay type: functional, organism-based
[40] = tested on: Staphylococcus aureus; assay: Induction of morphological changes in Staphylococcus aureus 29213 assessed as changes in cell surface by measuring signs of disruption by using scanning electron microscopy; assay type: functional, organism-based
[41] = tested on: Escherichia coli; assay: Induction of morphological changes in Escherichia coli 25922 assessed as membrane damage and cytoplasmic leakage by using transmission electron microscopy; assay type: functional, organism-based
[42] = tested on: DNA; assay: Binding affinity to DNA in Staphylococcus aureus 29213 incubated for 1 hr by electrophoresis; assay type: nucleic-acid assay

Substance: H-GKLWLKAGKLWLKGGKLWLKG-NH2
- MIC [1]: 2 µM
- MIC [2]: 0.5 µM
- MIC [3]: 2 µM
- MIC [4]: 1 µM
- MIC [5]: 4 µM
- MIC [6]: 2 µM
- MIC [7]: > 32 µM
- MIC [8]: 2 µM
- MIC [9]: 4 µM
- MIC [10]: 4 µM
- MBC [11]: 0.5 µM
- MBC [12]: 16 µM
- MBC [13]: 1 µM
- MBC [14]: 8 µM
- MBC [15]: 8 µM
- MBC [16]: 4 µM
- MBC [17]: 8 µM
- MBC [18]: 4 µM
- MIC [19]: 8 µM
- MIC [20]: 32 µM
- MIC [21]: 16 µM
- MIC [22]: 8 µM
- MIC [23]: 2 µM
- viability at 8 h, up to 64 µM [24]: 60%
- viability at 8 h, 64 µM [25]: > 80%
- viability at 8 h, 64 µM [26]: > 80%
- IC50 at 8 h [27]: > 64 µM
- inhibition (INH) [28]: 99.99%
- MIC [29]: 2 µM
- MIC [30]: 2 µM
- Activity [31]: Dose-Dependent Effect
- Activity [32]: Dose-Dependent Effect
- permeability [33]: Permeable
- permeability [34]: Permeable
- inhibition [35]: Active
- inhibition [36]: Active
- Activity [37]: Tde
- Activity [38]: Tde
- Activity [39]: Active
- Activity [40]: Active
- Activity [41]: Active
- Activity [42]: Active
